Experimental data as given in US8067442B2, “Heterocyclic antiviral compounds” (Roche Palo Alto LLC, priority 2008, dated 2011).

Molecular target: T1, HCV polymerase (NS5B570n-Con1) (Hepatitis C virus genotype 1b, UniProt Q9WMX2)
T1 construct: a 21 amino acid C-terminal deletion of full-length HCV polymerase; made in house; host or cells: E. coli BL21(DE3) pLysS, plasmid pET17b
Experiment: biochemical
Set-up: species or system HCV Con1 strain
Procedure: The enzymatic activity of HCV polymerase (NS5B570n-Con1) was measured as the incorporation of radiolabeled nucleotide monophosphates into acid insoluble RNA products. Unincorporated radiolabeled substrate was removed by filtration and scintillant was added to the washed and dried filter plate containing radiolabeled RNA product. The amount of RNA product generated by NS5B570n-Con1 at the end of the reaction was directly proportional to the amount of light emitted by the scintillant.
The HCV polymerase used in the enzymatic activity assay is a 21 amino acid C-terminal deletion of full-length HCV polymerase derived from HCV Con1 strain, genotype 1b (GenBank accession number AJ242654) (NS5B570n-Con1). The NS5B570n-Con1 was sub-cloned downstream to the T7 promoter of the plasmid expression construct pET17b and transformed into E. coli strain BL21(DE3) pLysS for protein expression. A single colony was used to start an innoculum for a 10 L culture in LB media supplemented with 100 μg/mL ampicillin at 37° C. Protein expression was induced by the addition of 0.25 mM isopropyl-β-D-thiogalactopyranoside (IPTG) when the optical density of the culture at […] was 0.8. Induction of protein expression was carried out at 30° C. for 16 h after which the cells were harvested by centrifugation. NS5B570n-Con1 was purified to homogeneity using a three-column purification protocol including subsequent column chromatography on Ni-NTA, SP-Sepharose HP and Superdex 75 resins.
Enzymatic reactions in the presence of cIRES RNA template (see section [0300]) contained 20 nM cIRES RNA, 20 nM NS5B570n-Con1 enzyme, 0.5 μCi of tritiated UTP (Perkin Elmer catalog no. TRK-412; specific activity: 30 to 60 Ci/mmol), 1 μM each ATP, CTP, and GTP, 40 mM Tris-HCl pH 8.0, 40 mM NaCl, 4 mM DTT (dithiothreitol), 4 mM MgCl2, 5 μl of compound serial diluted in DMSO, and nuclease-free water to a final reaction volume of 50 μl. Enzymatic reactions in the presence of 20 nM cIRES template, 20 nM NS5B570n-Con1 enzyme, 1 μCi of tritiated UTP (Perkin Elmer catalog no. TRK-412; specific activity: 30 to 60 Ci/mmol), 40 mM Tris-HCl pH 8.0, 40 mM NaCl, 4 mM DTT (dithiothreitol), 4 mM MgCl2, 5 μl of compound serial diluted in DMSO, and nuclease-free water to a final reaction volume of 50 μl. Reaction mixtures were assembled in 96-well filter plates (cat #MADVNOB, Millipore Co.) and incubated for 2 h at 30° C. Reactions were stopped by addition of 10% final (v/v) trichloroacetic acid and incubated for 40 min at 4° C. Reactions were filtered, washed with 8 reaction volumes of 10% (v/v) trichloroacetic acetic acid, 4 reaction volumes of 70% (v/v) ethanol, air dried, and 25 μl of scintillant (Microscint 20, Perkin-Elmer) was added to each reaction well.
Two RNA templates can be used to assay compounds described herein. The cIRES RNA template is 377 nucleotide long and consisting of a partial complementary sequence (36 nucleotides) of the core protein, followed by 341 nucleotide of the complementary sequence of the internal ribosome entry site. The poly A RNA template (GE Amersham catalog number 27-4110) was a homopolymeric RNA pre-annealed to a oligo(rU)16 primer at a molar ratio of 3-to-1 (primer-template). The cIRES template was used in the assay unless otherwise noted.
The amount of light emitted from the scintillant was converted to counts per minute (CPM) on a Topcount® plate reader (Perkin-Elmer, Energy Range: Low, Efficiency Mode Normal, Count Time: 1 min, Background Subtract: none, Cross talk reduction: Off).
Data was analyzed in Excel® (Microsoft®) and ActivityBase® (Idbs®). The reaction in the absence of enzyme was used to determine the background signal, which was subtracted from the enzymatic reactions. […] All data was expressed as a percentage of the positive control. The compound concentration at which the enzyme-catalyzed rate of RNA synthesis was reduced by 50% (IC50) was calculated by fitting

Point of comparison: CC(C)(C)c1cc(-c2ccc[nH]c2=O)cc2c(-c3cccc(CN)c3)coc12 [Compound I-62], IC50 893 nM. Against it:
- CC(C)(C)c1cc(-c2ccc[nH]c2=O)cc2c(CC(=O)O)coc12 [Compound I-6, [7-tert-Butyl-5-(2-oxo-1,2-dihydro-pyridin-3-yl)-benzofuran-3-yl]-acetic acid] — 2.5-fold lower, 358 nM
- COc1cccc(-c2coc3c(C(C)(C)C)cc(-c4ccc[nH]c4=O)cc23)c1 [Compound I-33] — 64-fold lower, 14 nM
- CC(=O)Nc1ccc(-c2coc3c(C(C)(C)C)cc(-c4ccc[nH]c4=O)cc23)cc1 [Compound I-80] — 14-fold lower, 64 nM
- CC(C)(C)c1cc(-c2ccc[nH]c2=O)cc2c(C(=O)Nc3cccc(NS(C)(=O)=O)c3)coc12 [Compound I-83] — 4.4-fold lower, 201 nM
- Cn1cc(C(N)=O)c2cc(-c3ccc[nH]c3=O)cc(C(C)(C)C)c21 [Compound I-112] — within 1.5-fold, 778 nM
- Cc1ccc(-c2cc(C(C)(C)C)c3occ(C(=O)N4CC[C@H](CNS(C)(=O)=O)C4)c3c2)c(=O)[nH]1 [Compound I-98] — 56-fold lower, 16 nM
- CC(C)(C)c1cc(-c2ccc[nH]c2=O)cc2c(-c3ccc(N)nc3)coc12 [Compound I-96, 3-[3-(6-Amino-pyridin-3-yl)-7-tert-butyl-benzofuran-5-yl]-1H-pyridin-2-one] — 19-fold lower, 47 nM
- CC(C)(C)c1cc(-c2ccc[nH]c2=O)cc2c(C(=O)N3CCC[C@@H](N)C3)coc12 [Compound I-42] — 1.6-fold lower, 549 nM
- COc1cccc(C(=O)c2coc3c(C(C)(C)C)cc(-c4ccc[nH]c4=O)cc23)c1 [Compound I-30, 3-[7-tert-Butyl-3-(3-methoxy-benzoyl)-benzofuran-5-yl]-1H-pyridin-2-one] — 2.7-fold lower, 329 nM
- CC(=O)NC[C@H]1CCN(C(=O)c2coc3c(C(C)(C)C)cc(-c4ccc[nH]c4=O)cc23)C1 [Compound I-75] — 4.5-fold lower, 197 nM
- CC(C)(C)c1cc(-c2cc(F)c[nH]c2=O)cc2c(-c3ccc(CNS(C)(=O)=O)cc3)coc12 [Compound I-74] — 24-fold lower, 37 nM
- CC(C)(C)c1cc(-c2ccc[nH]c2=O)cc2c(C(=O)N3CCC[C@@H](CNS(C)(=O)=O)C3)coc12 [Compound I-101] — 99-fold lower, 9 nM
- CC(C)(C)c1cc(-c2ccc[nH]c2=O)cc2c(CO)coc12 [Compound I-8] — 1.7-fold lower, 515 nM
- CC(C)CNC(=O)c1coc2c(C(C)(C)C)cc(-c3ccc[nH]c3=O)cc12 [Compound I-10] — 2.2-fold lower, 404 nM
- CC(C)(C)c1cc(-c2ccc[nH]c2=O)cc2c(-c3ccc(C#N)cc3)coc12 [Compound I-35] — 12-fold lower, 72 nM
- CCNC1(C(N)=O)CCN(C(=O)c2coc3c(C(C)(C)C)cc(-c4ccc[nH]c4=O)cc23)CC1 [Compound I-66] — 6.7-fold lower, 134 nM
- CC(C)(C)c1cc(-c2ccc[nH]c2=O)cc2c(-c3cccc(C#N)c3)coc12 [Compound I-32] — 24-fold lower, 38 nM
- Cn1cc(C#N)c2cc(-c3ccc[nH]c3=O)cc(C(C)(C)C)c21 [Compound I-110] — 2.8-fold lower, 314 nM
- CC(C)(C)c1cc(-c2ncc[nH]c2=O)cc2c(C(=O)N3CCOC(CNS(C)(=O)=O)C3)coc12 (stereo not shown) [Compound 100, N-{4-[7-tert-Butyl-5-(3-oxo-3,4-dihydro-pyrazin-2-yl)-benzofuran-3-carbonyl]-morpholin-2-ylmethyl}-methanesulfonamide] — 32-fold lower, 28 nM
- CC(C)(C)c1cc(-c2ccc[nH]c2=O)cc2c(C(=O)N3CCNCC3)coc12 [Compound I-28] — 2.2-fold higher, 1940 nM
- CC(C)(C)c1cc(-c2ccc[nH]c2=O)cc2c(C(=O)N3CCC(O)CC3)coc12 [Compound I-12] — 14-fold lower, 63 nM
- CC(C)(C)c1cc(-c2ccc[nH]c2=O)cc2c(C(=O)N3CC[C@@H](CNS(C)(=O)=O)C3)coc12 [Compound I-73, N-{(R)-1-[7-tert-Butyl-5-(2-oxo-1,2-dihydro-pyridin-3-yl)-benzofuran-3-carbonyl]-pyrrolidin-3-ylmethyl}-methanesulfonamide] — 43-fold lower, 21 nM
- CC(C)(C)c1cc(-c2ccc[nH]c2=O)cc2c(C(=O)N3CCC(NC(=O)C(F)(F)F)C3)coc12 (stereo not shown) [Compound I-60] — 18-fold lower, 51 nM
- CC(C)(C)c1cc(-c2ccc[nH]c2=O)cc2c(-c3cccc(O)c3)coc12 [Compound I-34] — 37-fold lower, 24 nM
- CC(C)(C)c1cc(-c2ccc[nH]c2=O)cc2c(C(=O)N3CCC(NC(=O)C(F)(F)F)CC3)coc12 [Compound I-55] — 2.6-fold higher, 2280 nM
- CC(C)(C)c1cc(-c2ccc[nH]c2=O)cc2c(C(=O)N3CCCC(CCS(C)(=O)=O)C3)coc12 (stereo not shown) [Compound 132, 3-{7-tert-Butyl-3-[3-(2-methanesulfonyl-ethyl)-piperidine-1-carbonyl]-benzofuran-5-yl}-1H-pyridin-2-one] — 31-fold lower, 29 nM
- CC(C)(C)c1cc(-c2ccc[nH]c2=O)cc2c(C(=O)N3CCC(C(N)=O)CC3)coc12 [Compound I-58] — 3.2-fold lower, 282 nM
- CC(=O)N1CCN(C(=O)c2coc3c(C(C)(C)C)cc(-c4ccc[nH]c4=O)cc23)CC1 [Compound I-52] — within 1.5-fold, 1250 nM
- CC(C)(C)c1cc(-c2ccc[nH]c2=O)cc2c(C(=O)Nc3ccccc3)coc12 [Compound I-23] — 2.1-fold lower, 425 nM
- CC(C)(C)c1cc(-c2ccc[nH]c2=O)cc2c(C(=O)N3CCOCC3)coc12 [Compound I-7] — 6.3-fold lower, 142 nM
- CC(C)(C)c1cc(-c2ccc[nH]c2=O)cc2c(C(=O)N3CCOC(CNS(C)(=O)=O)C3)csc12 (stereo not shown) [Compound 112, N-{4-[7-tert-Butyl-5-(2-oxo-1,2-dihydro-pyridin-3-yl)-benzo[b]thiophene-3-carbonyl]-morpholin-2-ylmethyl}-methanesulfonamide] — 220-fold lower, 4 nM
- COC(=O)[C@@H]1C[C@@H](O)CN1C(=O)c1coc2c(C(C)(C)C)cc(-c3ccc[nH]c3=O)cc12 [Compound I-63] — 1.8-fold higher, 1610 nM
- CC(C)(C)c1cc(-c2ccc[nH]c2=O)cc2c(C(=O)N3CCCC3)coc12 [Compound I-51] — 74-fold lower, 12 nM
- CC(C)(C)c1cc(-c2ccc[nH]c2=O)cc2c(C(=O)N3CCCC(CNS(C)(=O)=O)C3)coc12 (stereo not shown) [Compound I-90] — 150-fold lower, 6 nM
- CC(C)(C)c1cc(-c2ccc[nH]c2=O)cc2c(C(=O)N3CCC(O)(C(N)=O)CC3)coc12 [Compound I-64] — 9.2-fold lower, 97 nM
- CC(C)(C)c1cc(-c2ccc[nH]c2=O)cc2c(C(=O)N3CCC(F)(F)CC3)coc12 [Compound I-68] — within 1.5-fold, 597 nM
- CC(C)CN(C)C(=O)c1coc2c(C(C)(C)C)cc(-c3ccc[nH]c3=O)cc12 [Compound I-11] — 1.9-fold lower, 475 nM
- CC(C)(C)c1cc(-c2ccc[nH]c2=O)cc2c(C(=O)N3CCCC(O)C3)coc12 (stereo not shown) [Compound I-27] — 4.8-fold lower, 186 nM
- CCOC(=O)c1coc2c(C(C)(C)C)cc(-c3ccc[nH]c3=O)cc12 [Compound I-3, 7-tert-butyl-5-(2-oxo-1,2-dihydro-pyridin-3-yl)-benzofuran-3-carboxylic acid ethyl ester] — 3.5-fold lower, 258 nM
- CC(C)(C)c1cc(-c2ccc[nH]c2=O)cc2c(C(=O)N3CCC(O)C3)coc12 (stereo not shown) [Compound I-65] — 7.1-fold lower, 126 nM

Test system: not given
Experiment: not given

First: CC(C)(C)c1cc(-c2ccc[nH]c2=O)cc2c(CC(=O)O)coc12 [Compound I-6, [7-tert-Butyl-5-(2-oxo-1,2-dihydro-pyridin-3-yl)-benzofuran-3-yl]-acetic acid]
Second: CC(C)(C)c1cc(-c2ccc[nH]c2=O)cc2c(C(=O)N3CCC[C@@H](N)C3)coc12 [Compound I-42]
The melting point of the first is lower: 233 to 234 °C for the first, 254.9 to 258.1 °C for the second.

Compared with COc1cccc(-c2coc3c(C(C)(C)C)cc(-c4ccc[nH]c4=O)cc23)c1 [Compound I-33], CC(C)(C)c1cc(-c2ccc[nH]c2=O)cc2c(-c3ccc(N)nc3)coc12 [Compound I-96, 3-[3-(6-Amino-pyridin-3-yl)-7-tert-butyl-benzofuran-5-yl]-1H-pyridin-2-one] is higher in melting point: 204 to 205 °C for the first, 255 to 257 °C for the second.

Compared with CC(C)(C)c1cc(-c2ccc[nH]c2=O)cc2c(C(=O)Nc3cccc(NS(C)(=O)=O)c3)coc12 [Compound I-83], Cc1ccc(-c2cc(C(C)(C)C)c3occ(C(=O)N4CC[C@H](CNS(C)(=O)=O)C4)c3c2)c(=O)[nH]1 [Compound I-98] is lower in melting point: 290 to 291 °C for the first, 178 to 180 °C for the second.

Cn1cc(C(N)=O)c2cc(-c3ccc[nH]c3=O)cc(C(C)(C)C)c21 [Compound I-112] gave a melting point of 232 to 234 °C.

In the case of CC(=O)Nc1ccc(-c2coc3c(C(C)(C)C)cc(-c4ccc[nH]c4=O)cc23)cc1 [Compound I-80], the melting point is reported as over 300 °C.
